We go through eight molecules from patent US20180168208A1 (priority 2014, published 2018).

Counter-ions that a name gives are not always drawn. Like-named read-outs stand apart in the source and are kept apart here.

In this assay the target is T1, cat T1R1/T1R3 receptor (Felis catus, UniProt A0ABI7Z2I4).
T1 sequence (A0ABI7Z2I4 171-420): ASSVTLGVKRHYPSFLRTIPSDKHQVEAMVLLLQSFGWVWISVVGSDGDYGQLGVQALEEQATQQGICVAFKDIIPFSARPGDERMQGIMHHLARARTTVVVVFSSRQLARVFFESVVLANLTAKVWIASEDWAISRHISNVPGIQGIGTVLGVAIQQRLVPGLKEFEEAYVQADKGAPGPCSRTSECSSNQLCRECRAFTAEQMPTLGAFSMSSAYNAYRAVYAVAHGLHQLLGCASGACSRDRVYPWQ
T1 sequence (Q49KI5 25-865 E206Q/N523D/F654L partner): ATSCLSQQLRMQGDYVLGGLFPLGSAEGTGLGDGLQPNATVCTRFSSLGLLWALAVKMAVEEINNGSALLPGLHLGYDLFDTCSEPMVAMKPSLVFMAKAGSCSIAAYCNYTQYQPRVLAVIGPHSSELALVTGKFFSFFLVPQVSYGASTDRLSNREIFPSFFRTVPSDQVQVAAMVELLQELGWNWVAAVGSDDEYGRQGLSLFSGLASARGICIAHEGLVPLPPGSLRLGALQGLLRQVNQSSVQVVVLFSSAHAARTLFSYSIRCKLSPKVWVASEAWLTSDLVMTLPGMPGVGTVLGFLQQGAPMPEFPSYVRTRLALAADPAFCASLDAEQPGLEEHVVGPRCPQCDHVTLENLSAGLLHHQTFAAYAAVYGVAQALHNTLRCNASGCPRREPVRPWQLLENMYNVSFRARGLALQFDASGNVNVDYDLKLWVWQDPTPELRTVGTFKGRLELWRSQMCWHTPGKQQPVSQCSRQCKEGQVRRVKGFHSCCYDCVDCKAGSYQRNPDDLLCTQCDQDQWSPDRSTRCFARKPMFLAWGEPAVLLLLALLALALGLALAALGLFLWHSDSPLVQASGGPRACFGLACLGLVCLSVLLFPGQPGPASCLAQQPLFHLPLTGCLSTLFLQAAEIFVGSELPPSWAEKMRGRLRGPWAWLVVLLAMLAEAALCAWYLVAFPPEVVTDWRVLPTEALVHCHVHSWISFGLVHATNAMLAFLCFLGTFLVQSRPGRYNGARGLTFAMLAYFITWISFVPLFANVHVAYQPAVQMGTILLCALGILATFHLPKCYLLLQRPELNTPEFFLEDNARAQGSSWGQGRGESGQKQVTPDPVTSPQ
In words: cell-based. The source says:
HEK293 cells that stably express T1R3 and inducibly express T1R1 were exposed to nucleotide derivatives alone or in combination with one or more amino acids and/or one or more nucleotides to activate the umami receptor. Activation of the T1R1/T1R3 receptor was detected by a change in intracellular calcium levels using a calcium sensitive fluorescent dye and/or a luminescent reporter system. Cells that express T1R3 but not T1R1 were used as a control. A FLIPR® Tetra or a FlexStation® 3 was used for data capture.

Regarding `O=c1ccn([C@H]2C[C@H](O)[C@@H](COP(O)(O)=S)O2)c(=O)[nH]1` [2′-Deoxyuridine-5′-O-monophosphorothioate], the concentration for a half-maximal effect (EC50) (in general, the concentration at which the effect is half-maximal) is > 30000 µM.
On to `Nc1nc(Cl)c2ncn(C3OC(COP(=O)(O)O)C(O)C3O)c2n1` (stereo not drawn) [2-amino-6-chloropurineriboside-5′-O-monophosphate], for which the result was active, the EC50 was 0.5 µM and the Threshold is 0.00013 mM.
As for `O=P(O)(O)OC[C@H]1O[C@@H](n2cnc3c2ncn2ccnc32)[C@H](O)[C@@H]1O` [1,N6-Ethenoadenosine-5′-O-monophosphate], under “+Alanine (20 mM)”, the outcome was active.
In the case of `CNc1ncnc2c1ncn2[C@H]1C[C@H](OP(=O)(O)O)[C@@H](COP(=O)(O)O)O1`, the “Max resp. (ΔF/F)” value is given as 1.8150 ΔF/F, the “Max. resp. % of IMP” value is 146.1 % of IMP and the Threshold came out at 0.013 mM.
With `Nc1ncnc2c1ncn2[C@@H]1O[C@H](COP(O)(O)=S)[C@@H](O)[C@H]1O` [Adenosine-5′-O-monophosphorothioate], the outcome was active, the 50% effective concentration (EC50) is 11 µM and the Threshold amounted to 0.003 mM.
On the same counts, the results for `Nc1nc2c(ncn2[C@@H]2O[C@H](COP(=O)(O)OP(=O)(O)O)[C@@H](O)[C@H]2O)c(=O)[nH]1` [Guanosine 5′-diphosphate sodium salt, Guanosine 5′-diphosphate] are “active”, 200 µM and 0.050 mM.
`CNc1ncnc2c1ncn2[C@H]1C[C@H](OP(=O)(O)O)[C@@H](COP(=O)(O)O)O1` [MRS 2179 ammonium salt hydrate, 2′-Deoxy-N^6-methyl adenosine 3,5′-diphosphate diammonium salt]: the result was active.
As to `Nc1nc2c(ncn2[C@@H]2O[C@H](COP(=O)(O)O)[C@@H](O)[C@H]2O)c(=S)[nH]1` [6-thioguanosine-5′-O-monophosphate], the EC50 stood at 0.9 µM and the Threshold is given as 0.0002 mM. Further, under “in the presence of alanine”, the “function as activators of T1R1/T1R3 (in words)” value is “activators of T1R1/T1R3”.
